According to patent US6518243B1, “Desleucyl glycopeptide antibiotics and methods of making same” (Trustees of Princeton University, priority 1999, dated 2003):

Legend:
E. faceium (ATCC 49624) = experiment: Zone of inhibition screen, 96 well agar array format;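 further: score 3 means fourfold and score 4 sixteenfold the reference zone size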; type: cell-based, E. faecium; conditions: zone of inhibition relative to 1 mg/ml stock solution of p-chlorobiphenylvancomycin
Protocol: The antibacterial activity of each of the compounds against the bacterial strains E. faceium (ATCC 49624), S. epidermidis (ATCC 12228), S. aureus (ATCC 29213), E. faecalis (CL 4877) and E. faecalis (ATCC 292121) was tested. Each of the compounds was screened in a 96 will agar array format.

[1] = system: S. epidermidis (ATCC 12228); experiment: as above; type: cell-based; parameters: scale not given here
Outline: (§1)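 Panel screening of every compound against several bacterial strains, among them E. faecium ATCC 49624, was done in a 96-well agar array.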

E. faecium CL 4931 = experiment: MIC determination in BHI media, OD600; type: cell-based; conditions: BHI + 0.1% casamino acids, 18 hours at 37° C., ≧90% OD600 inhibition
Protocol: (§2) Logarithmically growing cells were diluted to approximately 5×10^5 CFU/ml and subjected to test compounds solubilized and serially diluted in DMSO. […] After 18 hours at 37° C., the OD600 was determined by reading the ninety-six well microtiter plates on a microplate reader. For a given concentration, an MIC determination was made if: […]

S aureus ATCC 29213 = experiment: MIC determination in BHI media, OD600; type: cell-based; conditions: BHI + 0.1% casamino acids, 18 hours at 37° C., ≧90% OD600 inhibition
Protocol: as §2

S. Aureus ATCC 33591 = experiment: MIC determination in BHI media, OD600; type: cell-based; conditions: BHI + 0.1% casamino acids, 18 hours at 37° C., ≧90% OD600 inhibition
Protocol: as §2

E. faecalis (CL 4877) = experiment: Zone of inhibition screen, 96 well agar array format; type: cell-based; parameters: scale not given here
Outline: as §1

S. aureus (ATCC 29213) = experiment: as above; type: cell-based; parameters: scale not given here
Outline: as §1

E. faecium ATCC 49624 = experiment: MIC determination in BHI media, OD600; type: cell-based; conditions: BHI + 0.1% casamino acids, 18 hours at 37° C., ≧90% OD600 inhibition
Protocol: as §2

[2] = zone of inhibition relative to 1 mg/ml stock solution of p-chlorobiphenylvancomycin
[3] = zone of inhibition relative to 1 mg/ml p-chlorobiphenylvancomycin

Row | SMILES | zone score, E. faecium ATCC 49624 (E. faceium (ATCC 49624)) | zone score, S. epidermidis ATCC 12228 [1, 2] | MIC E. faecium CL 4931 (E. faecium CL 4931) [µg/mL] | MIC S. aureus ATCC 29213 (S aureus ATCC 29213) [µg/mL] | MIC S. aureus ATCC 33591 (S. Aureus ATCC 33591) [µg/mL] | zone score, E. faecalis CL 4877 (E. faecalis (CL 4877); [2]) | zone score, S. aureus ATCC 29213 (S. aureus (ATCC 29213); [2]) | MIC E. faecium ATCC 49624 (E. faecium ATCC 49624) [µg/mL] | zone score, E. faecalis CL 4877 (E. faecalis (CL 4877); [3]) | zone score, S. aureus ATCC 29213 (S. aureus (ATCC 29213); [3]) | zone score, S. epidermidis ATCC 12228 [1, 3]
1 | C[C@H]1O[C@H](O[C@H]2[C@H](Oc3c4cc5cc3Oc3ccc(cc3Cl)[C@@H](O)[C@@H](NC(=O)CN3CCNCC3)C(=O)N[C@@H](CC(N)=O)C(=O)N[C@H]5C(=O)N[C@H]3C(=O)N[C@H](C(=O)N[C@@H](C(=O)O)c5cc(O)cc(O)c5-c5cc3ccc5O)[C@H](O)c3ccc(c(Cl)c3)O4)O[C@H](CO)[C@@H](O)[C@@H]2O)C[C@@](C)(NCc2ccc(-c3ccc(Cl)cc3)cc2)[C@H]1O [Compound 24] | 2 | 2 | 25 | 0.78 | 0.78 |  |  |  |  |  | 
2 | C[C@H]1O[C@H](O[C@H]2[C@H](Oc3c4cc5cc3Oc3ccc(cc3Cl)[C@@H](O)[C@@H](NC(=O)[C@@H](N)CCC(=O)OCc3ccccc3)C(=O)N[C@@H](CC(N)=O)C(=O)N[C@H]5C(=O)N[C@H]3C(=O)N[C@H](C(=O)N[C@@H](C(=O)O)c5cc(O)cc(O)c5-c5cc3ccc5O)[C@H](O)c3ccc(c(Cl)c3)O4)O[C@H](CO)[C@@H](O)[C@@H]2O)C[C@@](C)(NCc2ccc(-c3ccc(Cl)cc3)cc2)[C@H]1O [Compound 26] |  |  | > 25 | 0.78 | 0.78 | 2 | 2 |  |  |  | 
3 | CC1OC(OC2C(Oc3c4cc5cc3Oc3ccc(cc3Cl)C(O)C3NC(=O)C(NC(=O)C5NC(=O)C(CC(N)=O)NC(=O)C(NC(=O)CN5CCNCC5)C(O)c5ccc(c(Cl)c5)O4)c4ccc(O)c(c4)-c4c(O)cc(O)cc4C(C(=O)O)NC3=O)OC(CO)C(O)C2O)CC(C)(NCc2ccc(-c3ccc(Cl)cc3)cc2)C1O (stereo not drawn) [Compound 34] | 2 |  | 25 | 0.78 |  |  |  | 0.78 |  |  | 
4 | CC1OC(OC2C(Oc3c4cc5cc3Oc3ccc(cc3Cl)C(O)C3NC(=O)C(NC(=O)C5NC(=O)C(CC(N)=O)NC(=O)C(NC(=O)C(N)CO)C(O)c5ccc(c(Cl)c5)O4)c4ccc(O)c(c4)-c4c(O)cc(O)cc4C(C(=O)O)NC3=O)OC(CO)C(O)C2O)CC(C)(NCc2ccc(-c3ccc(Cl)cc3)cc2)C1O (stereo not drawn) [Compound 63] |  |  | 25 | 0.78 | 0.78 | 2 | 2 | 0.78 |  |  | 
5 | CC1OC(OC2C(Oc3c4cc5cc3Oc3ccc(cc3Cl)C(O)C3NC(=O)C(NC(=O)C5NC(=O)C(CC(N)=O)NC(=O)C(NC(=O)C(N)CCS(C)(=O)=O)C(O)c5ccc(c(Cl)c5)O4)c4ccc(O)c(c4)-c4c(O)cc(O)cc4C(C(=O)O)NC3=O)OC(CO)C(O)C2O)CC(C)(NCc2ccc(-c3ccc(Cl)cc3)cc2)C1O (stereo not drawn) [Compound 82] | 2 |  | 25 | 0.78 | 0.78 |  |  | 0.39 |  |  | 
6 | CC(O)C(N)C(=O)NC1C(=O)NC(CC(N)=O)C(=O)NC2C(=O)NC3C(=O)NC(C(=O)NC(C(=O)O)c4cc(O)cc(O)c4-c4cc3ccc4O)C(O)c3ccc(c(Cl)c3)Oc3cc2cc(c3OC2OC(CO)C(O)C(O)C2OC2CC(C)(NCc3ccc(-c4ccc(Cl)cc4)cc3)C(O)C(C)O2)Oc2ccc(cc2Cl)C1O (stereo not drawn) [Compound 89] | 2 | 2 | > 25 |  |  | 2 |  | 0.78 |  |  | 
7 | CC1OC(OC2C(Oc3c4cc5cc3Oc3ccc(cc3Cl)C(O)C3NC(=O)C(NC(=O)C5NC(=O)C(CC(N)=O)NC(=O)C(NC(=O)C(N)CCC(N)=O)C(O)c5ccc(c(Cl)c5)O4)c4ccc(O)c(c4)-c4c(O)cc(O)cc4C(C(=O)O)NC3=O)OC(CO)C(O)C2O)CC(C)(NCc2ccc(-c3ccc(Cl)cc3)cc2)C1O (stereo not drawn) [Compound 91] |  | 2 | 25 | 0.78 | 0.78 |  |  | 0.78 |  |  | 
8 | CC1OC(OC2C(Oc3c4cc5cc3Oc3ccc(cc3Cl)C(O)C3NC(=O)C(NC(=O)C5NC(=O)C(CC(N)=O)NC(=O)C(NC(=O)C(CCC(N)=O)NC(=O)OC(C)(C)C)C(O)c5ccc(c(Cl)c5)O4)c4ccc(O)c(c4)-c4c(O)cc(O)cc4C(C(=O)O)NC3=O)OC(CO)C(O)C2O)CC(C)(NCc2ccc(-c3ccc(Cl)cc3)cc2)C1O (stereo not drawn) [Compound 136] |  | 2 | > 25 | 0.78 | 0.78 |  |  | 0.78 |  |  | 
9 | C[C@H]1O[C@H](O[C@H]2[C@H](Oc3c4cc5cc3Oc3ccc(cc3Cl)[C@@H](O)[C@@H](NC(=O)c3cccc(N)c3)C(=O)N[C@@H](CC(N)=O)C(=O)N[C@H]5C(=O)N[C@H]3C(=O)N[C@H](C(=O)N[C@@H](C(=O)O)c5cc(O)cc(O)c5-c5cc3ccc5O)[C@H](O)c3ccc(c(Cl)c3)O4)O[C@H](CO)[C@@H](O)[C@@H]2O)C[C@@](C)(NCc2ccc(-c3ccc(Cl)cc3)cc2)[C@H]1O [Compound 257] |  |  | 25 | 0.78 | 0.78 |  |  | 0.39 | 2 | 2 | 2
10 | CC1OC(OC2C(Oc3c4cc5cc3Oc3ccc(cc3Cl)C(O)C3NC(=O)C(NC(=O)C5NC(=O)C(CC(N)=O)NC(=O)C(NC(=O)C(N)COCc5ccccc5)C(O)c5ccc(c(Cl)c5)O4)c4ccc(O)c(c4)-c4c(O)cc(O)cc4C(C(=O)O)NC3=O)OC(CO)C(O)C2O)CC(C)(NCc2ccc(-c3ccc(Cl)cc3)cc2)C1O (stereo not drawn) [Compound 342] |  |  | 25 | 0.78 | 0.78 |  |  | 0.39 |  |  | 
11 | CC1OC(OC2C(Oc3c4cc5cc3Oc3ccc(cc3Cl)C(O)C3NC(=O)C(NC(=O)C5NC(=O)C(CC(N)=O)NC(=O)C(NC(=O)C(N)CSSC(C)(C)C)C(O)c5ccc(c(Cl)c5)O4)c4ccc(O)c(c4)-c4c(O)cc(O)cc4C(C(=O)O)NC3=O)OC(CO)C(O)C2O)CC(C)(NCc2ccc(-c3ccc(Cl)cc3)cc2)C1O (stereo not drawn) [Compound 345] |  |  | 25 | 0.78 | 0.78 |  |  | 0.39 |  |  | 
12 | CCOCC(N)C(=O)NC1C(=O)NC(CC(N)=O)C(=O)NC2C(=O)NC3C(=O)NC(C(=O)NC(C(=O)O)c4cc(O)cc(O)c4-c4cc3ccc4O)C(O)c3ccc(c(Cl)c3)Oc3cc2cc(c3OC2OC(CO)C(O)C(O)C2OC2CC(C)(NCc3ccc(-c4ccc(Cl)cc4)cc3)C(O)C(C)O2)Oc2ccc(cc2Cl)C1O (stereo not drawn) [Compound 524] |  |  | 25 | 0.39 | 0.39 |  |  | 0.25 |  |  | 
13 | CCOCC(NC)C(=O)NC1C(=O)NC(CC(N)=O)C(=O)NC2C(=O)NC3C(=O)NC(C(=O)NC(C(=O)O)c4cc(O)cc(O)c4-c4cc3ccc4O)C(O)c3ccc(c(Cl)c3)Oc3cc2cc(c3OC2OC(CO)C(O)C(O)C2OC2CC(C)(NCc3ccc(-c4ccc(Cl)cc4)cc3)C(O)C(C)O2)Oc2ccc(cc2Cl)C1O (stereo not drawn) [Compound 527] |  |  | 25 | 0.39 | 0.39 |  |  | 0.25 |  |  | 
